Measurements from patent US8946197B2, “Transglutaminase TG2 inhibitors, pharmaceutical compositions, and methods of use thereof” (CHDI Foundation, Inc., priority 2009, dated 2015).
Values joined by “and” are separate entries in the source; they are usually repeats but may differ in a detail not shown here. Equal entries are not always repeated.

Target: T1, human TG2 (Homo sapiens, UniProt P21980)
T1 sequence (P21980 1-687): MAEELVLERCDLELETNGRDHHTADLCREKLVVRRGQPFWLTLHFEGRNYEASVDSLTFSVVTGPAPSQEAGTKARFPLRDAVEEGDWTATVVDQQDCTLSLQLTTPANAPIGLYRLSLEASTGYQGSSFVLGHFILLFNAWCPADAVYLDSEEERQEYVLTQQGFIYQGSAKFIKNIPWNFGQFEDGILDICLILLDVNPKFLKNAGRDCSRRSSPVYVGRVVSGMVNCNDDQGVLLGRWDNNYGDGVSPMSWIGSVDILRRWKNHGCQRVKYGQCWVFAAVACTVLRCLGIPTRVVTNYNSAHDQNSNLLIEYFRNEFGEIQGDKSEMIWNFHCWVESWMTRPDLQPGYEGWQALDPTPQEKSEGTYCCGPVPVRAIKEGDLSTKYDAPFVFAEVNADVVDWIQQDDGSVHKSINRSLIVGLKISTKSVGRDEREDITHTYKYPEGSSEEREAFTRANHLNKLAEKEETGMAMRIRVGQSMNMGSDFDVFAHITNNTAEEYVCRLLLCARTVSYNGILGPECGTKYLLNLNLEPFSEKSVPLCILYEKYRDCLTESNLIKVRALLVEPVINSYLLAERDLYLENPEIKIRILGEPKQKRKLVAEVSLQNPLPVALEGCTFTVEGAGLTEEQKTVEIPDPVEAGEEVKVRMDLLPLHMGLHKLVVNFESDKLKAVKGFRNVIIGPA
Assay: fluorescent screening assay for human TG2
Assay type: biochemical
Conditions: 20 nM TG2, 8 μM N,N-dimethylated Casein, 16 μM KxD, pH 7.4, 37° C
Protocol: (§1) The fluorescent screening assay for human TG2 was performed as described herein: Assay conditions were 20 nM TG2, 8 μM N,N-dimethylated Casein (NMC) and 16 μM K×D (used for all transglutaminase assays) in 25 mM Hepes, pH 7.4, 250 mM NaCl, 2 mM MgCl2, 0.5 mM CaCl2, 0.2 mM DTT, 0.05% Pluronic F-127 at 37° C. A time point was taken with a microplate reader (Safire or Ultra, Tecan; ex: 350 nm, em: 535 nm) every 3 minutes for up to 2 hours and the initial linear reaction progress was used to determine the reaction velocity as a measure for enzyme activity. Assay conditions were identical for human TG6 and similar for human TG1 and mouse TG2 apart from enzyme concentration (mTG2 at 5 nM; TG1 at 10 nM) and CaCl2 concentration (0.2 mM for mTG2; 0.05 mM for TG1). Factor XIIIa was activated using 0.1 μg/μl thrombin (Sigma) in 35 mM Tris pH 8.0 for 20 min at 30° C. and the transamidation reaction was performed with 20 nM Factor XIIIa in 50 mM Tris pH 8.0, 1.25 mM CaCl2, 0.05% Pluronic, 0.2 mM DTT. TG3 was activated with 0.02 μg/μl thrombin under the same conditions as Factor XIIIa and assay conditions were 10 nM TG3 in 50 mM Hepes, pH 8, 20 mM CaCl2, 0.2 mM DTT, 0.05% Pluronic F-127.
as §1, with “A” for “The”

Row | Structure (SMILES) | IC50
1 | C=CC(=O)Nc1ccc(S(=O)(=O)N2CCC(C(=O)N(C)c3ccccc3)CC2)cc1 [1-(4-Acryloylamino-benzenesulfonyl)-piperidine-4-carboxylic acid methyl-phenyl-amide] | < 100 nM and 100 to 1000 nM
2 | C=CC(=O)Nc1ccc(S(=O)(=O)N2CCN(C(=O)OC(C)(C)C)CC2)c(Cl)c1 [4-(4-Acryloylamino-2-chloro-benzenesulfonyl)-piperazine-1-carboxylic acid tert-butyl ester] | 100 to 1000 nM and < 100 nM
3 | C=CC(=O)Nc1ccc(S(=O)(=O)N2CCN(C(=O)OC(C)(C)C)CC2)c(OC)c1 [4-(4-Acryloylamino-2-methoxy-benzenesulfonyl)-piperazine-1-carboxylic acid tert-butyl ester] | 1000 to 25000 nM
4 | C=CC(=O)Nc1ccc(S(=O)(=O)N2CCN(C(=O)OC(C)(C)C)CC2)c(C)c1 [4-(4-Acryloylamino-2-methyl-benzenesulfonyl)-piperazine-1-carboxylic acid tert-butyl ester] | 1000 to 25000 nM
5 | C=CC(=O)Nc1ccc(S(=O)(=O)N2CCN(C(=O)OCc3ccccc3)CC2)cc1F [4-(4-Acryloylamino-3-fluoro-benzenesulfonyl)-piperazine-1-carboxylic acid benzyl ester] | 1000 to 25000 nM
6 | C=CC(=O)Nc1ccc(S(=O)(=O)N2CCN(C(=O)OCc3ccccc3)C(CC(=O)NC3C4CC5CC(C4)CC3C5)C2)cc1 (centres unmarked) [4-(4-Acryloylamino-benzenesulfonyl)-2-(adamantan-2-ylcarbamoylmethyl)-piperazine-1-carboxylic acid benzyl ester] | 100 to 1000 nM and < 100 nM
7 | C=CC(=O)Nc1ccc(S(=O)(=O)N2CCN(C(=O)OC(C)(C)C)C(c3ccco3)C2)cc1 (centres unmarked) [4-(4-Acryloylamino-benzenesulfonyl)-2-furan-2-yl-piperazine-1-carboxylic acid tert-butyl ester] | 100 to 1000 nM and < 100 nM
8 | C=CC(=O)Nc1ccc(S(=O)(=O)N2CCN(C(=O)OC(C)(C)C)[C@@H](C(C)C)C2)cc1 [4-(4-Acryloylamino-benzenesulfonyl)-2-isopropyl-piperazine-1-carboxylic acid tert-butyl ester] | 100 to 1000 nM and < 100 nM
9 | C=CC(=O)Nc1ccc(S(=O)(=O)N2CCN(C(=O)OCc3ccccc3)C(CC(=O)OC)C2)cc1 (centres unmarked) [4-(4-Acryloylamino-benzenesulfonyl)-2-methoxycarbonylmethyl-piperazine-1-carboxylic acid benzyl ester] | 100 to 1000 nM and < 100 nM
10 | C=CC(=O)Nc1ccc(S(=O)(=O)N2CCN(C(=O)OCc3ccccc3)[C@@H](C)C2)cc1 [4-(4-Acryloylamino-benzenesulfonyl)-2-methyl-piperazine-1-carboxylic acid benzyl ester] | 100 to 1000 nM and < 100 nM
11 | C=CC(=O)Nc1ccc(S(=O)(=O)N2CCN(C(=O)OCc3cccc(F)c3F)CC2)cc1 [4-(4-Acryloylamino-benzenesulfonyl)-piperazine-1-carboxylic acid 2,3-difluoro-benzyl ester] | 100 to 1000 nM and < 100 nM
12 | C=CC(=O)Nc1ccc(S(=O)(=O)N2CCN(C(=O)OCc3cccc(OC)c3OC)CC2)cc1 [4-(4-Acryloylamino-benzenesulfonyl)-piperazine-1-carboxylic acid 2,3-dimethoxy-benzyl ester] | 100 to 1000 nM and < 100 nM
13 | C=CC(=O)Nc1ccc(S(=O)(=O)N2CCN(C(=O)OCc3c(F)cccc3F)CC2)cc1 [4-(4-Acryloylamino-benzenesulfonyl)-piperazine-1-carboxylic acid 2,6-difluoro-benzyl ester] | 100 to 1000 nM and < 100 nM
14 | C=CC(=O)Nc1ccc(S(=O)(=O)N2CCN(C(=O)OCc3ccccc3Cl)CC2)cc1 [4-(4-Acryloylamino-benzenesulfonyl)-piperazine-1-carboxylic acid 2-chloro-benzyl ester] | 100 to 1000 nM and < 100 nM
15 | C=CC(=O)Nc1ccc(S(=O)(=O)N2CCN(C(=O)OCc3ccccc3C)CC2)cc1 [4-(4-Acryloylamino-benzenesulfonyl)-piperazine-1-carboxylic acid 2-methyl-benzyl ester] | 100 to 1000 nM and < 100 nM
16 | C=CC(=O)Nc1ccc(S(=O)(=O)N2CCN(C(=O)OCc3cc(F)cc(F)c3)CC2)cc1 [4-(4-Acryloylamino-benzenesulfonyl)-piperazine-1-carboxylic acid 3,5-difluoro-benzyl ester] | 100 to 1000 nM and < 100 nM
17 | C=CC(=O)Nc1ccc(S(=O)(=O)N2CCN(C(=O)OCc3cccc(Cl)c3)CC2)cc1 [4-(4-Acryloylamino-benzenesulfonyl)-piperazine-1-carboxylic acid 3-chloro-benzyl ester] | 100 to 1000 nM and < 100 nM
18 | C=CC(=O)Nc1ccc(S(=O)(=O)N2CCN(C(=O)OCc3cccc(F)c3)CC2)cc1 [4-(4-Acryloylamino-benzenesulfonyl)-piperazine-1-carboxylic acid 3-fluoro-benzyl ester] | 100 to 1000 nM and < 100 nM
19 | C=CC(=O)Nc1ccc(S(=O)(=O)N2CCN(C(=O)OCc3ccc(CCCC)cc3)CC2)cc1 [4-(4-Acryloylamino-benzenesulfonyl)-piperazine-1-carboxylic acid 4-butyl-benzyl ester] | 1000 to 25000 nM
20 | C=CC(=O)Nc1ccc(S(=O)(=O)N2CCN(C(=O)OCc3ccc(F)cc3)CC2)cc1 [4-(4-Acryloylamino-benzenesulfonyl)-piperazine-1-carboxylic acid 4-fluoro-benzyl ester] | < 100 nM and 100 to 1000 nM
21 | C=CC(=O)Nc1ccc(S(=O)(=O)N2CCN(C(=O)OCc3ccc(C)cc3)CC2)cc1 [4-(4-Acryloylamino-benzenesulfonyl)-piperazine-1-carboxylic acid 4-methyl-benzyl ester] | 100 to 1000 nM and < 100 nM
22 | C=CC(=O)Nc1ccc(S(=O)(=O)N2CCN(C(=O)OCc3ccc(C(C)(C)C)cc3)CC2)cc1 [4-(4-Acryloylamino-benzenesulfonyl)-piperazine-1-carboxylic acid 4-tert-butyl-benzyl ester] | 1000 to 25000 nM
23 | C=CC(=O)Nc1ccc(S(=O)(=O)N2CCN(C(=O)NC3C4CC5CC(C4)CC3C5)CC2)cc1 (centres unmarked) [4-(4-Acryloylamino-benzenesulfonyl)-piperazine-1-carboxylic acid adamantan-2-ylamide] | 100 to 1000 nM and < 100 nM
24 | C=CC(=O)Nc1ccc(S(=O)(=O)N2CCN(C(=O)NCc3ccccc3)CC2)cc1 [4-(4-Acryloylamino-benzenesulfonyl)-piperazine-1-carboxylic acid benzylamide] | 100 to 1000 nM and < 100 nM
25 | C=CC(=O)Nc1ccc(S(=O)(=O)N2CCN(C(=O)OC3CCCC3)CC2)cc1 [4-(4-Acryloylamino-benzenesulfonyl)-piperazine-1-carboxylic acid cyclopentyl ester] | 100 to 1000 nM and < 100 nM
26 | C=CC(=O)Nc1ccc(S(=O)(=O)N2CCN(C(=O)N(C)C)CC2)cc1 [4-(4-Acryloylamino-benzenesulfonyl)-piperazine-1-carboxylic acid dimethylamide] | 100 to 1000 nM and < 100 nM
27 | C=CC(=O)Nc1ccc(S(=O)(=O)N2CCN(C(=O)OCC)CC2)cc1 [4-(4-Acryloylamino-benzenesulfonyl)-piperazine-1-carboxylic acid ethyl ester] | 100 to 1000 nM and < 100 nM
28 | C=CC(=O)Nc1ccc(S(=O)(=O)N2CCN(C(=O)OCC(C)C)CC2)cc1 [4-(4-Acryloylamino-benzenesulfonyl)-piperazine-1-carboxylic acid isobutyl ester] | 100 to 1000 nM and < 100 nM
29 | C=CC(=O)Nc1ccc(S(=O)(=O)N2CCN(C(=O)OC(C)C)CC2)cc1 [4-(4-Acryloylamino-benzenesulfonyl)-piperazine-1-carboxylic acid isopropyl ester] | 100 to 1000 nM and < 100 nM
